Reference: patent publication US8871753B2, “Macrocyclic compounds and their use as kinase inhibitors” (Incyte Corporation, priority 2008, dated 2014)
Structures can show the parent of a compound that is named as a salt. Where two headings read alike, the source gives them in different places.

Experiments:
Assay type in all cases: biochemical
[1] = target: T1, human JAK2 (a.a. 828-1132) (Homo sapiens, UniProt O60674); test: In vitro JAK kinase assay (HTRF, phosphorylation of a biotinylated peptide), JAK2
T1 construct: JAK2 (a.a. 828-1132); His tag (N); made in house; host or cells: insect cells (baculovirus)
T1 sequence (O60674 828-1132): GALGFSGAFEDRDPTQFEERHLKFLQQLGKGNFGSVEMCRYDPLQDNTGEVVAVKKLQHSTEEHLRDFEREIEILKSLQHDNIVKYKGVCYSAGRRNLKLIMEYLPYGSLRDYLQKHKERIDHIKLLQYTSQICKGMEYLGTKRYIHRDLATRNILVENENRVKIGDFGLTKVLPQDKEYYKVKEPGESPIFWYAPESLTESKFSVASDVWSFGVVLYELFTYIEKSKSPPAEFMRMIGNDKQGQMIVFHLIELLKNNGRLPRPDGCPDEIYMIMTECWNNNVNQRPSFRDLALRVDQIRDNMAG
In short: (§1)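 Kinase activity was measured as phosphorylation of a biotinylated peptide, with ATP at 90 μM for JAK1, 30 μM for JAK2 and 3 μM for JAK3. Reactions ran 1 hr at room temperature, were stopped with EDTA plus SA-APC and Eu-Py20, and were read by HTRF after 40 minutes of antibody binding.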

[2] = target: T2, Recombinant Human Anaplastic Lymphoma Kinase (Homo sapiens, UniProt Q9UM73); test: ALK HTRF kinase assay
T2 construct: purchased Invitrogen, Carlsbad, Calif
T2 sequence (Q9UM73 19-1620): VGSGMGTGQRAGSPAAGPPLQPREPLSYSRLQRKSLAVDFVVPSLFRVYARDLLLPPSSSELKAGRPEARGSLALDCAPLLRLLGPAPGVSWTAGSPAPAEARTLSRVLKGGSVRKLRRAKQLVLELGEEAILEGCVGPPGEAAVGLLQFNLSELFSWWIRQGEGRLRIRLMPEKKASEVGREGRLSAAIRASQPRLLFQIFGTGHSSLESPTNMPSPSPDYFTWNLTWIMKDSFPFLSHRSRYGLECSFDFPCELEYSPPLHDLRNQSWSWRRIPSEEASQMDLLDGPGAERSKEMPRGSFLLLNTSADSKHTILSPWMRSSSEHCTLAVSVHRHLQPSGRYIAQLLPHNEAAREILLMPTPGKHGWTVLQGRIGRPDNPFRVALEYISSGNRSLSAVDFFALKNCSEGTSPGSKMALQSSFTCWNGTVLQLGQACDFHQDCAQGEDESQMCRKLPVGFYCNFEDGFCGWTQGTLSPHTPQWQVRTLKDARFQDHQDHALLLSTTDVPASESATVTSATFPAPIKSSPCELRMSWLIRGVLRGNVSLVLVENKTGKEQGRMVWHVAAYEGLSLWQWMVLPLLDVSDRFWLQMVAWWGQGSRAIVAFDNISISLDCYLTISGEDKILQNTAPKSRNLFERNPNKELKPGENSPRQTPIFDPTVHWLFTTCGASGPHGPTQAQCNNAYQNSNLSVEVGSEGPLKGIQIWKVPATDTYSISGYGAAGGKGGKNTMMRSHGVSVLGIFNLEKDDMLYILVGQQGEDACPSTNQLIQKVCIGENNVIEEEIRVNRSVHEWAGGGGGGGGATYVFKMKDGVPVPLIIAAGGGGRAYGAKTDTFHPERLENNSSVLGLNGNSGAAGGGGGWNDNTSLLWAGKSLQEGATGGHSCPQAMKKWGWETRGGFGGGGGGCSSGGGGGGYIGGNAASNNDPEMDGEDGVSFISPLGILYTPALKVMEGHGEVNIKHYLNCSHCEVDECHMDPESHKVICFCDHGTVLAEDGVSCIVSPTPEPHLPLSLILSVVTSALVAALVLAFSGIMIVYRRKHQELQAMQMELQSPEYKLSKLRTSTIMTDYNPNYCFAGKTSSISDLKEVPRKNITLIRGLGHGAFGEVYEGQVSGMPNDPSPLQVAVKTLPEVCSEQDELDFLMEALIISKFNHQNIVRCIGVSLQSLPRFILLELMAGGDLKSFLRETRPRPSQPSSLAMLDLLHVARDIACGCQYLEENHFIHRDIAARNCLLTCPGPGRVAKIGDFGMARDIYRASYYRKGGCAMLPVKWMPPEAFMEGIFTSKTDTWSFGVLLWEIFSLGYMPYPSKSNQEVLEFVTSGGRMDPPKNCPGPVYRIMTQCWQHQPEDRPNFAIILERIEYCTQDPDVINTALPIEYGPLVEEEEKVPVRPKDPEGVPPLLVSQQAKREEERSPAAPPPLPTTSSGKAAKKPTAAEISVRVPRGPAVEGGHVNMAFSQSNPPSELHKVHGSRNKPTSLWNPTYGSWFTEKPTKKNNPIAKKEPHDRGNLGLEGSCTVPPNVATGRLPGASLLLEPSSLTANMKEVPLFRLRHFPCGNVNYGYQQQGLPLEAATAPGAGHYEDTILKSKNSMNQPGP
In short: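 IC50 was obtained from a logistic fit of signal versus log inhibitor concentration, using pre- and post-transition baselines and a Hill slope. The signal reported tyrosine phosphorylation of a biotinylated peptide by recombinant human kinase, detected as Eu-to-APC energy transfer.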

[3] = target: T3, human JAK3 (a.a. 781-1124) (Homo sapiens, UniProt P52333); test: In vitro JAK kinase assay (HTRF, phosphorylation of a biotinylated peptide), JAK3
T3 construct: JAK3 (a.a. 781-1124); His tag (N); made in house; host or cells: insect cells (baculovirus)
T3 sequence (P52333 781-1124): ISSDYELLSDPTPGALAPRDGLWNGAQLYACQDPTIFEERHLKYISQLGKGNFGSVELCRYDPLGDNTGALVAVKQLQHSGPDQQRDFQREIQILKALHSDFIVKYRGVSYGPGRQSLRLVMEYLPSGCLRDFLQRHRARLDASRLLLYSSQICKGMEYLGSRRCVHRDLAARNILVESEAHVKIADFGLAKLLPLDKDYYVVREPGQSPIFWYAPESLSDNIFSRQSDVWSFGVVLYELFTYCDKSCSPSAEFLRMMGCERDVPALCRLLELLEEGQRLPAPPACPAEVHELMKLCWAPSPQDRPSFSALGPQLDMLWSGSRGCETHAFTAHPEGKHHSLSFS
In short: as §1

[4] = target: T4, human JAK1 (a.a. 837-1142) (Homo sapiens, UniProt P23458); test: In vitro JAK kinase assay (HTRF, phosphorylation of a biotinylated peptide), JAK1; conditions: read-out: JAK1 IC50
T4 construct: human JAK1 (a.a. 837-1142); His tag (N); made in house; host or cells: insect cells (baculovirus)
T4 sequence (P23458 849-1154): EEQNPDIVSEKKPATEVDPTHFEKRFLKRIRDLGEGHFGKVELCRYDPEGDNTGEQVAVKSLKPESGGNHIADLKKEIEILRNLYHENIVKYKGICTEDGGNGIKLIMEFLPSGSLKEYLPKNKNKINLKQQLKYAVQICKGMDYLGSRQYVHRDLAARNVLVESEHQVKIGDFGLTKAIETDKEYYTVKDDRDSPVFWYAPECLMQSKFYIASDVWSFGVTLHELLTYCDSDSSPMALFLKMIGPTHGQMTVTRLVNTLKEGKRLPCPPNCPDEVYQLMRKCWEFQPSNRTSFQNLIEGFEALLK
In short: as §1

[5] = target: TYK2 (Homo sapiens, UniProt P29597); test: TYK2 kinase inhibition (Table A1)
Sequence of TYK2 (P29597 whole entry): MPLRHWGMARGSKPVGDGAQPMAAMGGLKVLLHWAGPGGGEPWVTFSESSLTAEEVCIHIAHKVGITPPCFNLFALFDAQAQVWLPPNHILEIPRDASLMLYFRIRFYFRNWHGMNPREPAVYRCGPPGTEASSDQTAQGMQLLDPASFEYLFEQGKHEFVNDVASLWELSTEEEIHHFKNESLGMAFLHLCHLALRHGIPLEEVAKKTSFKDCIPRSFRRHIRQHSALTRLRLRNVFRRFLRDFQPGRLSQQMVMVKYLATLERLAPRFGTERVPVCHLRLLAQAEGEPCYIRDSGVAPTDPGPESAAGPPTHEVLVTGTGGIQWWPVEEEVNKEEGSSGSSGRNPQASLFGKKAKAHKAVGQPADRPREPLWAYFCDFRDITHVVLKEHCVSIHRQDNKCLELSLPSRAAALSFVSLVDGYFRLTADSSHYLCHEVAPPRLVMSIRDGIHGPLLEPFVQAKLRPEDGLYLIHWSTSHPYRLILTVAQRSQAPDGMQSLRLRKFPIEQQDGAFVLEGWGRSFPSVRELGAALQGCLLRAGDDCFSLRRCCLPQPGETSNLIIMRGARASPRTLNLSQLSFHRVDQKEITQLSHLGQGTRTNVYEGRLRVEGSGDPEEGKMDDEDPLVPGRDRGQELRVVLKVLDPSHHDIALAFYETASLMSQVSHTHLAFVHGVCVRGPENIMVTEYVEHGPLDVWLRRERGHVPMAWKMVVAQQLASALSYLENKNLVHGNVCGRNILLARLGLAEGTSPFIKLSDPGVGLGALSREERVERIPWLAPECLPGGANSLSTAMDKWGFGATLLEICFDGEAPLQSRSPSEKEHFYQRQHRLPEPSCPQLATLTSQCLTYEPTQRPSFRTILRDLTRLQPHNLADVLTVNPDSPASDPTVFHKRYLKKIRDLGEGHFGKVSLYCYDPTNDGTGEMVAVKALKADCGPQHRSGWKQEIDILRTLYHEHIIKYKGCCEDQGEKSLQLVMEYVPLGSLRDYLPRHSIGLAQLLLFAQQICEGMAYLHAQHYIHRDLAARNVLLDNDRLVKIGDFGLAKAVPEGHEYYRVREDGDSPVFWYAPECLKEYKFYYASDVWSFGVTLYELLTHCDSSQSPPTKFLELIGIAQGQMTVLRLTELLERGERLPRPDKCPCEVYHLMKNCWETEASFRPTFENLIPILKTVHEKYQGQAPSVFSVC

[6] = compound at a concentration of 500 nM or 1 mM (not specified), cells shown as percentage
[7] = Table B1, cells without percent sign
[8] = method AA1 (30 μM ATP) or AA2 (1000 μM ATP), not stated per value
[9] = compound at 500 nM or 1 mM, 90 μM ATP
[10] = method AA1 (3 μM ATP) or AA2 (1000 μM ATP), not stated per value
[11] = method AA1 (90 μM ATP) or AA2 (1000 μM ATP), not stated per value

Compound	IC50 ([1]; Table B1) [nM]	ALK % of inhibition at a concentration of 500 nM or 1 mM [2, 6] [%]	IC50 ([3]; Table B1) [nM]	IC50 ([4]; Table B1) [nM]	IC50 ([5]; Table B1) [nM]	IC50 [1, 8] [nM]	ALK % of inhibition at a concentration of 500 nM or 1 mM [2, 9] [%]	IC50 [3, 10] [nM]	IC50 [4, 11] [nM]	IC50 [5] [nM]	other results
O=C(Nc1ccc2cc1CCc1cccc(c1)Nc1ncc(Cl)c(n1)N2)[C@@H]1CCNC1 [Example A45, (3R)—N-[6-chloro-2,4,8,22-tetraazatetracyclo[14.3.1.1(3,7).1(9,13)]docosa-1(20),3(22),4,6,9(21),10,12,16,18-nonaen-12-yl]pyrrolidine-3-carboxamide bis(trifluoroacetate)]						20	29	31	9.6	39	
Nc1nc(C(=O)N2CCC(CC(=O)Nc3ccc4cc3CCc3cncc(c3)Nc3ncc(Cl)c(n3)N4)CC2)cs1 [Example A217, 2-{1-[(2-Amino-1,3-thiazol-4-yl)carbonyl]piperidin-4-yl}-N-[6-chloro-2,4,8,18,22-pentaazatetracyclo[14.3.1.1(3,7).1(9,13)]docosa-1(20),3(22),4,6,9(21),10,12,16,18-nonaen-12-yl]acetamide tris(trifluoroacetate)]						68	23	> 200	4.2	55	
Cc1nc(C)c(S(=O)(=O)N2CCC(CC(=O)Nc3ccc4cc3CCc3cncc(c3)Nc3ncc(Cl)c(n3)N4)CC2)s1 [Example A232, N-[6-Chloro-2,4,8,18,22-pentaazatetracyclo[14.3.1.1(3,7).1(9,13)]docosa-1(20),3(22),4,6,9(21),10,12,16,18-nonaen-12-yl]-2-{1-[(2,4-dimethyl-1,3-thiazol-5-yl)sulfonyl]piperidin-4-yl}acetamide bis(trifluoroacetate)]						94	43	> 400	12	326	
N#Cc1cccc(S(=O)(=O)N2CCC(CC(=O)Nc3ccc4cc3CCc3cncc(c3)Nc3ncc(Cl)c(n3)N4)CC2)c1 [Example A228, N-[6-Chloro-2,4,8,18,22-pentaazatetracyclo[14.3.1.1(3,7).1(9,13)]docosa-1(20),3(22),4,6,9(21),10,12,16,18-nonaen-12-yl]-2-{1-[(3-cyanophenyl)sulfonyl]piperidin-4-yl}acetamide bis(trifluoroacetate)]						114	62	> 400	6.9	109	
CS(=O)(=O)N1CCN(c2cc(-c3cc4cc(c3)Nc3ncc(Cl)c(n3)Nc3cccc(c3)OCC4)ccn2)CC1 [Example D36, 6-Chloro-19-{2-[4-(methylsulfonyl)piperazin-1-yl]pyridin-4-yl}-14-oxa-2,4,8,23-tetraazatetracyclo[15.3.1.1(3,7).1(9,13)]tricosa-1(21),3(23),4,6,9(22),10,12,17,19-nonaene bis(trifluoroacetate)]											IC50 ([1]; Table D1): 0.4 nM; IC50 ([2]; Table D1, 90 μM ATP): 225 nM; IC50 ([3]; Table D1): 4.9 nM; IC50 ([4]; Table D1): 1.3 nM; IC50 ([5]; Table D1): 4.9 nM
O=C(CC1CCN(C(=O)c2ccc(F)cc2F)CC1)Nc1ccc2cc1CCc1cncc(c1)Nc1ncc(Cl)c(n1)N2 [Example A194, N-[6-Chloro-2,4,8,18,22-pentaazatetracyclo[14.3.1.1(3,7).1(9,13)]docosa-1(20),3(22),4,6,9(21),10,12,16,18-nonaen-12-yl]-2-[1-(2,4-difluorobenzoyl)piperidin-4-yl]acetamide bis(trifluoroacetate)]						150	31	> 200	7.3	> 200	
Cc1cc(C(=O)N2CCC(CC(=O)Nc3ccc4cc3CCc3cccc(c3)Nc3ncc(Cl)c(n3)N4)CC2)no1 [Example A86, N-[6-Chloro-2,4,8,22-tetraazatetracyclo[14.3.1.1(3,7).1(9,13)]docosa-1(20),3(22),4,6,9(21),10,12,16,18-nonaen-12-yl]-2-{1-[(5-methylisoxazol-3-yl)carbonyl]piperidin-4-yl}acetamide trifluoroacetate]						2.2	32	29	0.8	1.5	

Further lines, with some results ahead:

IC50 ([1]; Table B1) [nM]	ALK % of inhibition at a concentration of 500 nM or 1 mM [2, 6] [%]	IC50 ([3]; Table B1) [nM]	IC50 ([4]; Table B1) [nM]	IC50 ([5]; Table B1) [nM]	IC50 [1, 8] [nM]	ALK % of inhibition at a concentration of 500 nM or 1 mM [2, 9] [%]	IC50 [3, 10] [nM]	IC50 [4, 11] [nM]	IC50 [5] [nM]	Compound	other results
9.5	14	64	7.3	18						O=C(NCCN1CCCC1=O)Nc1ccc2cc1CCc1cccc(c1)Nc1ncc(Cl)c(n1)N2 [Example B257, N-[6-Chloro-2,4,8,22-tetraazatetracyclo[14.3.1.1(3,7).1(9,13)]docosa-1(20),3(22),4,6,9(21),10,12,16,18-nonaen-12-yl]-N′-[2-(2-oxopyrrolidin-1-yl)ethyl]urea trifluoroacetate]	
500		> 1000	> 1000	> 1000						O=C(Nc1cc2cc(c1)Nc1nc(ncc1Cl)Nc1cccc(c1)CC2)c1nc2ccccc2s1 [Example B204, N-[6-Chloro-2,4,8,22-tetraazatetracyclo[14.3.1.1(3,7).1(9,13)]docosa-1(20),3(22),4,6,9(21),10,12,16,18-nonaen-11-yl]-1,3-benzothiazole-2-carboxamide trifluoroacetate]	IC50 [2, 7]: > 10000 nM
2.3		5.8	14	18						OCc1cc2cc(c1)Nc1nc(ncc1Cl)Nc1cccc(c1)CC2 [Example B24, [6-Chloro-2,4,8,22-tetraazatetracyclo[14.3.1.1(3,7).1(9,13)]docosa-1(20),3(22),4,6,9(21),10,12,16,18-nonaen-11-yl]methanol trifluoroacetate]	IC50 [2, 7]: 781 nM
23		308	21	341						Fc1ccc(CN2CCN(Cc3cc4cc(c3)Nc3nc(ncc3Cl)Nc3cccc(c3)CC4)CC2)cc1 [Example B192, 6-Chloro-11-{[4-(4-fluorobenzyl)piperazin-1-yl]methyl}-2,4,8,22-tetraazatetracyclo[14.3.1.1(3,7).1(9,13)]docosa-1(20),3(22),4,6,9(21),10,12,16,18-nonaene tris(trifluoroacetate)]	IC50 [2, 7]: > 1000 nM
160	77	> 400	16	27						N#Cc1ccccc1N1CCN(C(=O)Nc2ccc3cc2CCc2cncc(c2)Nc2ncc(Cl)c(n2)N3)CC1 [Example B300, N-[6-Chloro-2,4,8,18,22-pentaazatetracyclo[14.3.1.1(3,7).1(9,13)]docosa-1(20),3(22),4,6,9(21),10,12,16,18-nonaen-12-yl]-4-(2-cyanophenyl)piperazine-1-carboxamide tris(trifluoroacetate)]	
9	40	35	3.9	16						CCc1ccccc1NC(=O)Nc1ccc2cc1CCc1cccc(c1)Nc1ncc(Cl)c(n1)N2 [Example B97, N-[6-Chloro-2,4,8,22-tetraazatetracyclo[14.3.1.1(3,7).1(9,13)]docosa-1(20), 3(22),4,6,9(21),10,12,16,18-nonaen-12-yl]-N′-(2-ethylphenyl)urea trifluoroacetate]	
7.4	41	29	17	42						Clc1cnc2nc1Nc1ccc(CN[C@H]3CCNC3)c(c1)CCc1cccc(c1)N2 [Example B223, (3S)—N-{[6-Chloro-2,4,8,22-tetraazatetracyclo[14.3.1.1(3,7).1(9,13)]docosa-1(20),3(22),4,6,9(21),10,12,16,18-nonaen-12-yl]methyl}pyrrolidin-3-amine tris(trifluoroacetate)]	
133		> 400	21	67						O=C(Nc1ccc2cc1CCc1cncc(c1)Nc1ncc(Cl)c(n1)N2)N1CCN(c2ncccn2)CC1 [Example B309, N-[6-Chloro-2,4,8,18,22-pentaazatetracyclo[14.3.1.1(3,7).1(9,13)]docosa-1(20),3(22),4,6,9(21),10,12,16,18-nonaen-12-yl]-4-pyrimidin-2-ylpiperazine-1-carboxamide tris(trifluoroacetate)]	ALK % of inhibition at a concentration of 500 nM or 1 mM ([2]; percentage inhibition of the example compound at a concentration of 500 nM or 1 mM (not specified which)): 68%
27	5	198	11	96						O=C(Nc1ccc(OC(F)(F)F)cc1)Nc1ccc2cc1CCc1cccc(c1)Nc1ncc(Cl)c(n1)N2 [Example B132, N-[6-Chloro-2,4,8,22-tetraazatetracyclo[14.3.1.1(3,7).1(9,13)]docosa-1(20), 3(22),4,6,9(21),10,12,16,18-nonaen-12-yl]-N′-[4-(trifluoromethoxy)phenyl]urea trifluoroacetate]	
